Experimental data published in patent publication US8367830B2, “Methods for the identification of phosphatidylinositol kinase interacting molecules and for the purification of phosphatidylinositol kinase proteins” (Cellzome AG, priority 2009, dated 2013).

How the values were obtained:
BCKDK [1] = biological target: T1, BCKDK (Homo sapiens, UniProt O14874); assay: Kinobeads competition binding, immobilized CZC31207, HeLa/placenta lysate mix; design: endogenous in cells; conditions: 10 μM free compound; mixed HeLa and placenta cell lysates
Procedure: (§1) To the first aliquot of cell lysate 10 μM of the free compound (CZC31207) was added and allowed to bind to proteins in the lysate. Then the affinity matrix with the immobilized compound (Example 1) was added to capture proteins that were not interacting with the previously added free compound. Beads were separated from the lysate and bead bound proteins were eluted in SDS sample buffer and subsequently separated by SDS-Polyacrylamide gel electrophoresis (FIG. 4). Suitable gel bands were cut out and subjected to in-gel proteolytic digestion with trypsin. The second lysate aliquot was processed identically, however no free compound was added (DMSO solvent control). Peptides originating from samples 1 and 2 were labeled with iTRAQ reagents (iTRAQ 115 and iTRAQ 117) and the combined samples were analyzed with a nano-flow liquid chromatography system coupled online to a tandem mass spectrometer (LC-MS/MS) experiment followed by iTRAQ reporter ion quantification in the MS/MS spectra (Ross et al., 2004. Mol. Cell. Proteomics 3(12):1154-1169). Further experimental protocols can be found in WO2006/134056 and a previous publication (Bantscheff et al., 2007. Nature Biotechnology 25, 1035-1044).
(§2) Cells were homogenized in a Potter S homogenizer in lysis buffer: 50 mM Tris-HCl, 0.8% NP40, 5% glycerol, 150 mM NaCl, 1.5 mM MgCl2, 25 mM NaF, 1 mM sodium vanadate, 1 mM DTT, pH 7.5. One complete EDTA-free tablet (protease inhibitor cocktail, Roche Diagnostics, 1 873 580) per 25 ml buffer was added. The material was dounced 20 times using a mechanized POTTER S, transferred to 50 ml falcon tubes, incubated for 30 minutes rotating at 4° C. and spun down for 10 minutes at 20,000×g at 4° C. (10,000 rpm in Sorvall SLA600, precooled). The supernatant was transferred to an ultracentrifuge (UZ)-polycarbonate tube (Beckmann, 355654) and spun for 1 hour at 145.000×g at 4° C. (40.000 rpm in Ti50.2, precooled). The supernatant was transferred again to a fresh 50 ml falcon tube, the protein concentration was determined by a Bradford assay (BioRad) and samples containing 50 mg of protein per aliquot were prepared. The samples were immediately used for experiments or frozen in liquid nitrogen and stored frozen at −80° C.
Sepharose-beads with the immobilized compound (100 μl beads per pull-down experiment) were equilibrated in lysis buffer and incubated with a cell lysate sample containing 50 mg of protein on an end-over-end shaker (Roto Shake Genie, Scientific Industries Inc.) for 2 hours at 4° C. Beads were collected, transferred to Mobicol-columns (MoBiTech 10055) and washed with 10 ml lysis buffer containing 0.4% NP40 detergent, followed by 5 ml lysis buffer containing 0.2% detergent. To elute bound proteins, 60 μl 2×SDS sample buffer was added to the column. […]

PIK4Ca = PIK4Ca (Homo sapiens, UniProt P42356); assay: Kinobeads competition binding, immobilized CZC31207, Jurkat/Ramos lysate mix; design: capturing and identification of kinases from amix of Jurkat and Ramos cell lysates; endogenous in cells; host or cells: mix of Jurkat and Ramos cell lysates; conditions: 10 μM free compound; mix of Jurkat and Ramos cell lysates
Procedure: (§3) To the first aliquot of cell lysate 10 μM of the free compound CZC31207 was added and allowed to bind to proteins in the lysate. Then the affinity matrix with the immobilized compound was added to capture proteins that were not interacting with the previously added free compound. Beads were separated from the lysate and bead bound proteins were eluted in SDS sample buffer and subsequently separated by SDS-Polyacrylamide gel electrophoresis (FIG. 5). Suitable gel bands were cut out and subjected to in-gel proteolytic digestion with trypsin. The second lysate aliquot was processed identically, however no free compound was added (DMSO solvent control). Peptides originating from samples 1 and 2 were labeled with iTRAQ reagents (iTRAQ 114 and iTRAQ 116) and the combined samples were analyzed with a nano-flow liquid chromatography system coupled online to a tandem mass spectrometer (LC-MS/MS) experiment followed by iTRAQ reporter ion quantification in the MS/MS spectra as described in Example 2.
(§4) Jurkat cells (ATCC number T1B-152) and Ramos cells (ATCC number CRL-1596) were either obtained from an external supplier (CIL SA, Mons, Belgium) or grown in one litre Spinner flasks (Integra Biosciences, #182101) in suspension in RPMI 1640 medium (Invitrogen, #21875-034) supplemented with 10% Fetal Bovine Serum (Invitrogen, #10270-106) at a density between 0.2×10^6 and 1.0×10^6 cells/ml. […]

CaMK2g = CaMK2g (Homo sapiens, UniProt Q13555); assay: as above; design: capturing and identification of kinases from amix of Jurkat and Ramos cell lysates; endogenous in cells; host or cells: mix of Jurkat and Ramos cell lysates; conditions: 10 μM free compound; mix of Jurkat and Ramos cell lysates
Procedure: as §3, §4

MAP3K6 = biological target: T2, MAP3K6 (Homo sapiens, UniProt O95382); assay: Kinobeads competition binding, immobilized CZC31207, HeLa/placenta lysate mix; conditions: 10 μM free compound; mixed HeLa and placenta cell lysates
T2 construct: endogenous in cells; host or cells: mixed lysate of HeLa cells and placenta
T2 sequence (O95382 whole entry): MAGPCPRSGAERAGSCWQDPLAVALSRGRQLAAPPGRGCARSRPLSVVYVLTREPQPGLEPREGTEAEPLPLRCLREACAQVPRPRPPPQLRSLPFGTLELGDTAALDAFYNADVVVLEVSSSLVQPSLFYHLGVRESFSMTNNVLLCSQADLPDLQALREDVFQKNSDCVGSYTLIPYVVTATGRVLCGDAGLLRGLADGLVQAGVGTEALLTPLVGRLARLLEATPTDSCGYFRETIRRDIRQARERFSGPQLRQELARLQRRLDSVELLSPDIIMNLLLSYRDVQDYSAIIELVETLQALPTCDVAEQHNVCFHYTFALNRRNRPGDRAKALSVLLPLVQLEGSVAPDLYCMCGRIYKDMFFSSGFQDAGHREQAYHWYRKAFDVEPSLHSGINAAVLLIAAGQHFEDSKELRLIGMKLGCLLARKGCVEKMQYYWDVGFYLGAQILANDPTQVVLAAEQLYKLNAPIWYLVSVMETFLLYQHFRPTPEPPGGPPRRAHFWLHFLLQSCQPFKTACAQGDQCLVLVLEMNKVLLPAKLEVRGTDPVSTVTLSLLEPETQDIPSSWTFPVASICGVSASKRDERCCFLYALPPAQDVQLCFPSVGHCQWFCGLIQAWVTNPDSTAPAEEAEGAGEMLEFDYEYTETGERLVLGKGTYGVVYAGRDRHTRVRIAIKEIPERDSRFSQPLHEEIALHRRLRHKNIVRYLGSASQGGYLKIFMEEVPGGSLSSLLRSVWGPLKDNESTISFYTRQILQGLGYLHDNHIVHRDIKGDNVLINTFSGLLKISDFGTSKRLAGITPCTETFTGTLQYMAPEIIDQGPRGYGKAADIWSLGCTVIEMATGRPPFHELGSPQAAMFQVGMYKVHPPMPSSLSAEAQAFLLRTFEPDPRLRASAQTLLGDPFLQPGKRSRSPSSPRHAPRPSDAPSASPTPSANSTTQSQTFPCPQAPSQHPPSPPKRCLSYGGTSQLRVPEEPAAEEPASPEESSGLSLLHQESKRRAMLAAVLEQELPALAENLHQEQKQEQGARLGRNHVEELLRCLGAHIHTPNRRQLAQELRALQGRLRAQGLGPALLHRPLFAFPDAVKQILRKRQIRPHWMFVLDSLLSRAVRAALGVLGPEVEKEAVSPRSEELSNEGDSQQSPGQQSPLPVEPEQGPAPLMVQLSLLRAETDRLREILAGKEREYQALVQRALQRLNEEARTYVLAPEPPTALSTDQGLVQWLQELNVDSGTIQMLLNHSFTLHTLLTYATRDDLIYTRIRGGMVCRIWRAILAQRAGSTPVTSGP
Procedure: as §1, §2
(§5) Sepharose-beads with the immobilized compound (100 μl beads per pull-down experiment) were equilibrated in lysis buffer and incubated with a cell lysate sample containing 50 mg of protein on an end-over-end shaker (Roto Shake Genie, Scientific Industries Inc.) for 2 hours at 4° C. Beads were collected, transferred to Mobicol-columns (MoBiTech 10055) and washed with 10 ml lysis buffer containing 0.4% NP40 detergent, followed by 5 ml lysis buffer containing 0.2% detergent. To elute bound proteins, 60 μl 2×SDS sample buffer was added to the column. The column was incubated for 30 minutes at 50° C. and the eluate was transferred to a siliconized microfuge tube by centrifugation. Proteins were then alkylated with 108 mM iodoacetamid. Proteins were then separated by SDS-Polyacrylamide electrophoresis (SDS-PAGE).
(§6) Gel-separated proteins were digested in-gel essentially following a previously described procedure (Shevchenko et al., 1996, Anal. Chem. 68:850-858). Briefly, gel-separated proteins were excised from the gel using a clean scalpel, destained twice using 100 μl 5 mM triethylammonium bicarbonate buffer (TEAB; Sigma T7408) and 40% ethanol in water and dehydrated with absolute ethanol. Proteins were subsequently digested in-gel with porcine trypsin (Promega) at a protease concentration of 10 ng/μl in 5 mM TEAB. Digestion was allowed to proceed for 4 hours at 37° C. and the reaction was subsequently stopped using 5 μl 5% formic acid.
(§7) Gel plugs were extracted twice with 20 μl 1% formic acid and three times with increasing concentrations of acetonitrile. Extracts were subsequently pooled with acidified digest supernatants and dried in a vacuum centrifuge. […]

MLKL = biological target: T3, MLKL (Homo sapiens, UniProt Q8NB16); assay: as above; conditions: 10 μM free compound; mixed HeLa and placenta cell lysates
T3 construct: endogenous in cells; host or cells: mix of HeLa cell lysate and placenta lysate
Procedure: as §1, §2, §5, §6, §7

TNK1 = biological target: T4, TNK1 (Homo sapiens, UniProt Q13470); assay: as above; conditions: 10 μM free compound; mixed HeLa and placenta cell lysates
T4 construct: endogenous in cells; host or cells: mix of HeLa cell lysate and placenta lysate
Procedure: as §1, §2, §5, §6, §7

AurA = biological target: T5, AurA (Homo sapiens, UniProt O14965); assay: as above; conditions: 10 μM free compound; mixed HeLa and placenta cell lysates
T5 construct: endogenous in cells; host or cells: mixed lysate of HeLa cells and placenta
T5 sequence (O14965 whole entry): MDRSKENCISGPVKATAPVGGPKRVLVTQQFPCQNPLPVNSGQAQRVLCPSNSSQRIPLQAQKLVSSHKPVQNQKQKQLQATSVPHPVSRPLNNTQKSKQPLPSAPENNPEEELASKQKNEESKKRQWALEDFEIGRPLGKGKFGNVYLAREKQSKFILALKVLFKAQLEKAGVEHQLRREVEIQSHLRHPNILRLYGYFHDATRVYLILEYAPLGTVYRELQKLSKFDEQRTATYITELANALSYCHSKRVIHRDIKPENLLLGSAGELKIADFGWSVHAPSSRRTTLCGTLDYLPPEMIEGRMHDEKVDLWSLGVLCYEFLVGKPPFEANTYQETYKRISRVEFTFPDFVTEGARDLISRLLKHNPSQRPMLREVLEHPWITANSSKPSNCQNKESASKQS
Procedure: as §1, §2, §5, §6, §7

JNK2 = biological target: T6, JNK2 (Homo sapiens, UniProt P45984); assay: as above; conditions: 10 μM free compound; mixed HeLa and placenta cell lysates
T6 construct: endogenous in cells; host or cells: mixed lysate of HeLa cells and placenta
T6 sequence (P45984 whole entry): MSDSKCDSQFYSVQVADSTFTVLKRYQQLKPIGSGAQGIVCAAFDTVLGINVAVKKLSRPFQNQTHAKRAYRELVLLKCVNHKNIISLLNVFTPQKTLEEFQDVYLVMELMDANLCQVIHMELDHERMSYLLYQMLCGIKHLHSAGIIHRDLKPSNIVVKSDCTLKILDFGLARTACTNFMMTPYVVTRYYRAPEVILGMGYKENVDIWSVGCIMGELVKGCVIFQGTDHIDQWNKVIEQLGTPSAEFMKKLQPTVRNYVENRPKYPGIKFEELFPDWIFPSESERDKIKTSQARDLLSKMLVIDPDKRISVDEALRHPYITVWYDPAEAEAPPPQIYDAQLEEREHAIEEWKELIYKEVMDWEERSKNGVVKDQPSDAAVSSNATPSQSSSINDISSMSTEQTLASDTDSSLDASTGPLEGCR
Procedure: as §1, §2, §5, §6, §7

PIK3Ca = biological target: T7, PIK3Ca (Homo sapiens, UniProt P42336); assay: as above; conditions: 10 μM free compound; mixed HeLa and placenta cell lysates
T7 construct: endogenous in cells; host or cells: mix of HeLa cell lysate and placenta lysate
Procedure: as §1, §2, §5, §6, §7

Erk2 = biological target: T8, Erk2 (Homo sapiens, UniProt P28482); assay: as above; conditions: 10 μM free compound; mixed HeLa and placenta cell lysates
T8 construct: endogenous in cells; host or cells: mix of HeLa cell lysate and placenta lysate
T8 sequence (P28482 whole entry): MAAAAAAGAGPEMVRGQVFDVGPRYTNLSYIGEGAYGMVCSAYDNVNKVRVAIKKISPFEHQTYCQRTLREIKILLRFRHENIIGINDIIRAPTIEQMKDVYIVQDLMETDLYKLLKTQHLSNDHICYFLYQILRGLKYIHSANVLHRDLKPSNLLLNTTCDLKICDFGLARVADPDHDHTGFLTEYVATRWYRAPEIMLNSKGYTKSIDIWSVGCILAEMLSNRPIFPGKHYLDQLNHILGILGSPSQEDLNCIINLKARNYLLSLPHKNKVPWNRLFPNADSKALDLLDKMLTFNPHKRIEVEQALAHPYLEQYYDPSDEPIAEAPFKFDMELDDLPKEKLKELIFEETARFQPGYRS
Procedure: as §1, §2, §5, §6, §7

MAP3K1 = MAP3K1 (Homo sapiens, UniProt Q13233); assay: Kinobeads competition binding, immobilized CZC31207, Jurkat/Ramos lysate mix; design: endogenous in cells; host or cells: mixed lysate of Jurkat and Ramos cells; conditions: 10 μM free compound; mix of Jurkat and Ramos cell lysates
Chain of MAP3K1 (Q13233 whole entry): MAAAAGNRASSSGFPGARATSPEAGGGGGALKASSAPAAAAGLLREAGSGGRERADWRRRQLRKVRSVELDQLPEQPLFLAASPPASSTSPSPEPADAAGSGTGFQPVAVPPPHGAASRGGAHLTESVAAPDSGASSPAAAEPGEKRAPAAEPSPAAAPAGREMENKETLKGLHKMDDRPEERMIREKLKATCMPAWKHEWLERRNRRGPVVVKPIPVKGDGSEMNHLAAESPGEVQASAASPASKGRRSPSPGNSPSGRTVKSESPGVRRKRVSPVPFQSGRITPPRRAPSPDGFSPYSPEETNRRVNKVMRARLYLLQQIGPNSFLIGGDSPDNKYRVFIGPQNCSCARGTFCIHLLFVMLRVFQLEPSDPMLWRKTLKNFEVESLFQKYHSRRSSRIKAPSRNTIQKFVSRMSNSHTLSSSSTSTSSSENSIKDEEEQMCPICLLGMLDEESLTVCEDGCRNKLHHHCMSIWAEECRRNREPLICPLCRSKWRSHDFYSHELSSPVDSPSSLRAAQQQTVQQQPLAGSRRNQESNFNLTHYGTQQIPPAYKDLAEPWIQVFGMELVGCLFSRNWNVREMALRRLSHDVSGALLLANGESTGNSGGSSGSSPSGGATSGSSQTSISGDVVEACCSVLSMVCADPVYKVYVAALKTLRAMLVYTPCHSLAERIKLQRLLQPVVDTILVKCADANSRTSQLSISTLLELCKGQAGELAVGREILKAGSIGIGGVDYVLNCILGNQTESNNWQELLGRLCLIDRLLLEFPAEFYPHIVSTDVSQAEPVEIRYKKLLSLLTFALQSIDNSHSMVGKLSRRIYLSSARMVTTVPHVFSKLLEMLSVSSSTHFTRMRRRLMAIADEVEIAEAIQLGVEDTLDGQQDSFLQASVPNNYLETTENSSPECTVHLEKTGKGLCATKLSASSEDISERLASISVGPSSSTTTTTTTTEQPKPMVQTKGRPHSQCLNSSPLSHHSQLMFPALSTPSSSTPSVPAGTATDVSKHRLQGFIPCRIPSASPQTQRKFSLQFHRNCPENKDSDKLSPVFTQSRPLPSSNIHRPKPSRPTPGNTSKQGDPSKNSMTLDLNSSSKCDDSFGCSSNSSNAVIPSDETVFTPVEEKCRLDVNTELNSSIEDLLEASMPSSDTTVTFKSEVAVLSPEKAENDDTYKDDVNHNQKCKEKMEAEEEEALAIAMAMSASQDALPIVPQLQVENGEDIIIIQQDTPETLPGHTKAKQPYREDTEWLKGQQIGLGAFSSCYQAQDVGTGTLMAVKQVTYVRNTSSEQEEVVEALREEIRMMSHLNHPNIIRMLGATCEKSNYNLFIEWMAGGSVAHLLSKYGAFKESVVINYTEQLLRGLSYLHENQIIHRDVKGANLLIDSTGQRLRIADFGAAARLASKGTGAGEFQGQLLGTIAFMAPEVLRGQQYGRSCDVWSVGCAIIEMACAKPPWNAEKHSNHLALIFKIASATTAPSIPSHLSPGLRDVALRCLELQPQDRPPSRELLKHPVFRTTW
Procedure: as §3, §4

BCKDK [2] = biological target: T1, BCKDK; assay: as above; design: endogenous in cells; host or cells: mixed lysate of Jurkat and Ramos cells; conditions: 10 μM free compound; mix of Jurkat and Ramos cell lysates
Procedure: as §3, §4

PIK3Cb = PIK3Cb (Homo sapiens, UniProt P42338); assay: as above; design: endogenous in cells; conditions: 10 μM free compound; mix of Jurkat and Ramos cell lysates
Procedure: as §3
(§8) Jurkat cells (ATCC number T1B-152) and Ramos cells (ATCC number CRL-1596) were either obtained from an external supplier (CIL SA, Mons, Belgium) or grown in one litre Spinner flasks (Integra Biosciences, #182101) in suspension in RPMI 1640 medium (Invitrogen, #21875-034) supplemented with 10% Fetal Bovine Serum (Invitrogen, #10270-106) at a density between 0.2×10^6 and 1.0×10^6 cells/ml. Cells were harvested by centrifugation, washed once with 1×PBS buffer (Invitrogen, #14190-094) and cell pellets were frozen in liquid nitrogen and subsequently stored at −80° C.
(§9) The identified kinases are shown in Table 5 including the percent competition values for the sample to which 10 μM free compound had been added. In total of 20 different kinases were identified and competed by different degrees.

PIK3Cg = PIK3Cg (Homo sapiens, UniProt P48736); assay: as above; design: endogenous in cells; conditions: 10 μM free compound; mix of Jurkat and Ramos cell lysates
Chain of PIK3Cg (P48736 whole entry): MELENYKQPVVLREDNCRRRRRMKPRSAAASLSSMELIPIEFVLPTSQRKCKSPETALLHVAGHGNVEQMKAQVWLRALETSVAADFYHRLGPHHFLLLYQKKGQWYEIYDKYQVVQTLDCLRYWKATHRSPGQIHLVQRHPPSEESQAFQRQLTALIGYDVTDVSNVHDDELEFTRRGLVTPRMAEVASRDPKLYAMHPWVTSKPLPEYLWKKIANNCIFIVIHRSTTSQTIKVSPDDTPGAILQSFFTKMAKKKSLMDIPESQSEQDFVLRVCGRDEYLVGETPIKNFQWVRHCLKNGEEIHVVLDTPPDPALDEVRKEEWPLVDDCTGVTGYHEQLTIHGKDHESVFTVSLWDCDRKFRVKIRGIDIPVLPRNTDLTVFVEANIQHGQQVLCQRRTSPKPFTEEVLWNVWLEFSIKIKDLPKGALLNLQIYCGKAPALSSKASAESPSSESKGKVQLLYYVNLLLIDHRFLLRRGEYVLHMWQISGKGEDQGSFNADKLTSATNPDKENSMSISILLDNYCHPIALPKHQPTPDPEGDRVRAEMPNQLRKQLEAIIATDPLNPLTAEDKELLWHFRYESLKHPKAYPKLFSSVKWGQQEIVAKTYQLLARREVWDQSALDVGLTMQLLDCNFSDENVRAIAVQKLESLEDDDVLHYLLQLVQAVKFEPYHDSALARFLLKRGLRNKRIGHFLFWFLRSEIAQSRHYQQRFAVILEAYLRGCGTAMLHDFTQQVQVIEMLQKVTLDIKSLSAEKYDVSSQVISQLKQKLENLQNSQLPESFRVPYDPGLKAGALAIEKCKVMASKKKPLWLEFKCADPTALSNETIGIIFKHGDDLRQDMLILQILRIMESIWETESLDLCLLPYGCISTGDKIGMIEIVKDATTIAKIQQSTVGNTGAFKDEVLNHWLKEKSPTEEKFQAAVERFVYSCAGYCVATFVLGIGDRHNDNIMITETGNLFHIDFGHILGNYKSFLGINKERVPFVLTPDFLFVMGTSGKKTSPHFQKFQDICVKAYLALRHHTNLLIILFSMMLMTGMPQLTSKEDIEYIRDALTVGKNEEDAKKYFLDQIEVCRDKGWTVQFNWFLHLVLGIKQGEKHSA
Procedure: as §3, §8, §9

PIK3Cd = PIK3Cd (Homo sapiens, UniProt O00329); assay: as above; design: endogenous in cells; conditions: 10 μM free compound; mix of Jurkat and Ramos cell lysates
Procedure: as §3, §8, §9

FRAP = FRAP (Homo sapiens, UniProt P42345); assay: as above; design: endogenous in cells; conditions: 10 μM free compound; mix of Jurkat and Ramos cell lysates
Procedure: as §3, §8, §9

NEK2 = NEK2 (Homo sapiens, UniProt P51955); assay: as above; design: endogenous in cells; conditions: 10 μM free compound; mix of Jurkat and Ramos cell lysates
Procedure: as §3, §8, §9

DNAPK = DNAPK (Homo sapiens, UniProt P78527); assay: as above; design: endogenous in cells; conditions: 10 μM free compound; mix of Jurkat and Ramos cell lysates
Procedure: as §3, §8, §9

PIP5K2C = PIP5K2C (Homo sapiens, UniProt Q8TBX8); assay: as above; design: endogenous in cells; conditions: 10 μM free compound; mix of Jurkat and Ramos cell lysates
Procedure: as §3, §8, §9

Competition % BCKDK (BCKDK [1]): 8%
Competition % PIK4Ca (PIK4Ca): 28.5%
Competition % CaMK2g (CaMK2g): −3.1%
Competition % MAP3K6 (MAP3K6): 10.3%
Competition % MLKL (MLKL): 34.2%
Competition % TNK1 (TNK1): −1.9%
Competition % AurA (AurA): 12.8%
Competition % JNK2 (JNK2): 24.6%
Competition % PIK3Ca (PIK3Ca): 68.6%
Competition % Erk2 (Erk2): −2.9%
Competition % MAP3K1 (MAP3K1): 14.1%
Competition % BCKDK (BCKDK [2]): −0.1%
Competition % PIK3Cb (PIK3Cb): 94.8%
Competition % PIK3Cg (PIK3Cg): 91.5%
Competition % PIK3Cd (PIK3Cd): 91.3%
Competition % FRAP (FRAP): −87.1%
Competition % NEK2 (NEK2): 17%
Competition % DNAPK (DNAPK): 38.2%
Competition % PIP5K2C (PIP5K2C): 75.5%
SMILES: CC(C)NS(=O)(=O)c1cncc(-c2ccc3nc(NC(=O)NCCN)nn3c2)c1 [CZC31207, 5-(2-(3-(2-aminoethyl)ureido)-[1,2,4]triazolo[1,5-a]pyridin-6-yl)-N-isopropylpyridine-3-sulfonamide]
